# Data: ChEMBL document CHEMBL1157539, “Thousands of chemical starting points for antimalarial lead identification” (Nature, 2010)
# Tested on: Plasmodium falciparum
# Experiment: GSK_TCMDC: Inhibition of Plasmodium falciparum 3D7 in whole erythrocytes, using parasite LDH activity as an index of growth.
# Format: functional, organism-based
# Settings: Plasmodium falciparum, 3D7
row,Compound,XC50 [nM]
1,CCCC(CNCc1cccc(SC(F)(F)F)c1)CNc1cc(=O)c2ccccc2[nH]1 (stereo unspecified),715
2,Cc1nc2ccc(-c3nc4cc(N)ccc4[nH]3)cc2[nH]1,233
3,O=C(N[C@@H](Cc1ccccc1)[C@H](O)CNCCC(F)(F)F)c1cccc(OCC2CC2)c1,616
4,COc1ccc(CCNc2ccnc3cc(Cl)ccc23)cc1OC,891
5,Cc1cc(C2CCN(CCCCNC(=O)c3ccc(-c4ccc(C(F)(F)F)cc4)cc3)CC2)c(C)cc1OCCOC1CCCCO1 (stereo unspecified),785
6,CC(C)Nc1nc(NCCc2c[nH]cn2)nc(NCc2ccc(Cl)c(Cl)c2)n1,962
7,O=C(CCCCCNC(=O)c1ccc(O)c(-c2ccc(Cl)c(Cl)c2)c1)NCCN1CCOCC1,830
8,CCOC(=O)CCCN1C(=O)CN=C(c2ccccc2)c2cc(Cl)ccc21,778
9,c1ccc(Oc2ccc(Nc3ccnc4cc(-c5ccc(CN6CCCCC6)o5)ccc34)cc2)nc1,331
10,Cc1cc(Nc2c(C(N)=O)cnc3cc(-c4ccoc4)ccc23)ccc1N1CCN(C)CC1,797
11,Cc1c(CCc2cccc(F)c2F)[nH]c2ccccc2c1=O,822
12,Nc1nc(N)c2c(ccc3c2ccn3Cc2ccc(OCc3ccccc3)cc2)n1,933
13,O=C(Nc1ccc(Cl)c(Cl)c1)N[C@H]1CCN(CCCCCNC(=O)C2CC2c2ccc(Cl)c(Cl)c2)C1 (stereo partly specified),1030
14,CC1(C)N=C(N)N=C(N)N1c1cc(Cl)c(Cl)cc1Cl,181
15,CC(C)CCN1CCC(Oc2ccc(NC(=O)c3ccco3)cc2Cl)CC1,676
16,CCN1CCN(c2cc(C)c3cc(NC(=O)c4ccc(N(CC)CC)cc4)ccc3n2)CC1,962
17,Cc1cccn2c(=O)c3cc(C(=O)NC(C)c4ccccc4)c(=N)n(CCN4CCOCC4)c3nc12 (stereo unspecified),823
18,COc1cc(C)ccc1S(=O)(=O)N1CCCCC(c2ccc(C(F)(F)F)cc2)=N1,775
19,O=C(Nc1cccc(C(F)(F)F)c1)NC1CCN(c2ccnc3ccccc23)CC1,988
20,Cc1ccccc1N1CCN(c2ccc(C(=O)Nc3ccccc3)cc2)CC1,723
21,O=C(NCc1cccc2ccccc12)[C@@H]1CCCN1C(=O)c1ccc(O)c(-c2ccc(Cl)c(Cl)c2)c1,948
22,CCOc1ccc(C(=O)Nc2cc(Br)c3c(c2)CNCC3)cc1Cl,1040
23,O=C(NC1CC1)c1cnc(N2CCC(COc3cccc(F)c3)CC2)c(Cl)c1,1200
24,COc1ccc(-c2ccc(CNC(=O)c3cccc(C#N)c3)c(F)c2)cc1CN1CCCN(C)CC1,804

row,Compound,XC50 [nM]
1,O=C(c1ccc(Cl)cc1)C1CCN(CCCOc2ccc3c(c2)CCNCC3)CC1,1150
2,Cc1cccc2nc(-c3ccc(-c4ccc(NC(=O)C(C)CN5CCN(C)CC5)cc4)s3)[nH]c12 (stereo unspecified),731
3,CN1CC[C@@H](Oc2cc(C(=O)NCc3ccc(Cl)c(Cl)c3)ccc2C(F)(F)F)C1,1250
4,Cc1noc(C)c1CN1CCCN(c2ccc3c(c2)CCN(Cc2ccc(-c4ncc[nH]4)cc2)CC3)CC1,864
5,O=C(Nc1cccc(-c2cc(-c3c(Cl)cccc3Cl)no2)c1)c1cncc(-c2cccs2)c1,952
6,O=C(NCC1CCC(C(=O)NCc2cccc(C(F)(F)F)c2)CC1)c1ccc(O)c(-c2ccc(Cl)c(Cl)c2)c1 (stereo unspecified),711
7,CN1CCN(c2cc3c(cc2Cl)CCN3C(=O)Nc2ccc(NC(=O)c3ccc(C(F)(F)F)cc3)cc2)CC1,515
8,CC(=O)Nc1ccc(C(=O)NC2CCN(c3ccnc4cc(Cl)ccc34)CC2)cc1,357
9,COc1ccc(Nc2nccc(-c3ccc4c(-c5ccsc5)cnc(N)c4c3)n2)cc1,236
10,CN1CCN(CC(=O)Nc2cccc(-c3cccc(-c4nc5cc(F)ccc5[nH]4)c3)c2)CC1,741
11,Fc1ccc2[nH]c(-c3ccc(-c4ccc(CN5CCN(CCN6CCOCC6)CC5)cc4)cc3)nc2c1,183
12,COc1ccccc1C1CCN(C2CCC(NC(=O)c3ccc4[nH]c(-c5ccc(C)cc5)nc4c3)CC2)CC1 (stereo unspecified),308
13,CC(C)Nc1nc(NCCc2c[nH]cn2)nc(Nc2ccc(Oc3ccccc3)cc2)n1,887
14,COc1ccc(CCN(C)CCCN2CCC(NC(=O)c3cccc4c(=O)c5ccccc5sc34)CC2)cc1OC,786
15,CCOc1cc2ccccc2cc1CNCCCCCCNCc1cc2ccccc2cc1OCC,979
16,CCC1CN2CCc3c([nH]c4ccc(OC)cc34)C2CC1CC1NCCc2cc(OC)c(OC)cc21 (stereo unspecified),862
17,CN(c1cc(NC(=O)c2cccs2)ccn1)C1CCN(Cc2cccc(C#N)c2)CC1,1260
18,COc1cc2ccccc2c(OC)c1CNCCCCCCNCc1c(OC)cc2ccccc2c1OC,988
19,CC(C)CC(C)NC(=O)C1Cc2c([nH]c3cc(Cl)ccc23)C2(CCN(CCc3ccccc3)CC2)N1 (stereo unspecified),815
20,CCCCCCN(CCCCCC)CC(O)c1cc(-c2ccc(Cl)cc2)nc2c(C)cc(C)cc12 (stereo unspecified),67.3
21,Cc1ccc(CC(C)(C)NCC(O)c2cccc(C(F)(F)F)c2)cc1 (stereo unspecified),836
22,O=C(Nc1cccc(C(F)(F)F)c1)c1ccc(S(=O)(=O)NC2CCN(CC3CCCCC3)CC2)cc1,1160
23,O=C(Nc1ccc2c(c1)CCC2)c1nc(N2CCN(c3ccncc3)CC2)ccc1Cl,1380
24,CN(c1ccc2c(c1)nc(NCc1ccccc1)n2C)c1ccnc(Nc2ccc(CS(C)(=O)=O)cc2)n1,841

row,Compound,XC50 [nM]
1,COc1ccc(NC(=O)/C=C/c2ccccc2Cl)cc1OCCN1CCC(Cc2cc3ccccc3[nH]2)CC1,903
2,CC1(C)NC(N)=NC(=N)N1OCc1cc(Cl)c(Cl)cc1CON1C(=N)N=C(N)NC1(C)C,14.6
3,COc1ccccc1C1CCN(C2CCC(NC(=O)/C=C/c3cccc(Cl)c3)CC2)CC1 (stereo unspecified),1030
4,COc1ccccc1CNC(=O)C(=O)Nc1c(-c2ccccc2)[nH]c2ccccc12,737
5,O=C(Nc1ccc(-c2nc3ccccc3[nH]2)cc1)c1ccc(Cl)c([N+](=O)[O-])c1,802
6,COc1ccc(C2CCN(CCN3CCC(NC(=O)c4cccc(-c5ccncc5)c4)CC3)CC2)c(OC)c1,797
7,Cc1ccn2c(N(Cc3ccccc3)C(=O)c3ccc(Cl)c(Cl)c3)c(-c3ccccc3)nc2c1,987
8,Cc1ccc2[nH]c(-c3cc(-c4cccc(CCN5CCOCC5)c4)cnc3N)nc2c1,170
9,COc1cccc(C2(c3cccc(OC)c3)N=C(N)N(CCCc3ccccc3)C2=O)c1,260
10,COc1ccc(OCCCN2CCN(CC(c3ccc(F)cc3)N3CCN(C(C)C)CC3)CC2)c2ccccc12 (stereo unspecified),650
11,C[C@@H]1CC[C@H](NC(=O)[C@H](CC2CCCC2)NC(=O)N2CCNCC2)C(=O)CN1S(=O)(=O)c1ccccn1,891
12,C=CCNC(CCCCC)c1ccc(OCCOc2ccc(C(CCCCC)NCC=C)cc2)cc1 (stereo unspecified),567
13,Cc1cccc2nc(-c3ccc(-c4ccc(CN5CCN(C6CCN(C)CC6)CC5)cc4)cc3)[nH]c12,100
14,CNCCc1c(O)ccc2ccccc12,804
15,Cc1c[nH]c(-c2cccc(C(=O)NC3CCC(CCN4CCc5ccc(C#N)cc5CC4)CC3)c2)n1 (stereo unspecified),301
16,CC(=O)Nc1cccc(CN(Cc2ccc(-c3ccc(CNCc4cccnc4)cn3)cc2)C(=O)Cc2cccnc2)c1,820
17,COc1cc2nc(N3CCC(CNC(=O)c4ccc(-c5ccc(-c6noc(C)n6)cc5)cc4)CC3)nc(N)c2cc1OC,139
18,Cc1ncccc1-c1cccc2c(NC(=O)Nc3ccc4nccc(N5CCN(C)CC5)c4c3)cccc12,632
19,Cc1cc(S(=O)(=O)N2CCCCC(c3ccc(C(F)(F)F)cc3)=N2)c(Cl)cc1Cl,504
20,O=C(NCCNc1ccnc(Nc2ccc(F)cc2)n1)c1cc2ccccc2s1,755
21,Cc1c(C(=O)C2CC2CN2CCC(N3CCCC3)CC2)sc2ccccc12 (stereo unspecified),1400
22,N#Cc1cncc(-c2nc3c(N4CCC(N5CCCC5)CC4)cccc3n2CCNCc2ccccc2)c1,874
23,COc1cc(C(=O)NC2CC(C)(C)N(C)C(C)(C)C2)ccc1-c1cc2cc(Cl)c(Cl)cc2[nH]1,1140
24,N#Cc1ccccc1Sc1ccccc1C(=O)Nc1ccc2ccccc2n1,507

row,Compound,XC50 [nM]
1,CN(C)c1ccc(C=CC(=O)NC(=O)c2ccccc2O)cc1,227
2,CCCNCc1ccc(-c2ccc(CN(CC3CCCO3)C(=O)COc3ccccc3Cl)cc2)nc1 (stereo unspecified),1180
3,Cc1cc(N[C@@H](Cc2ccccc2)C(=O)NCCOc2ccccc2)nc(NCCc2cccs2)n1,997
4,COc1ccc(-n2cc(C(=O)c3cc(Br)ccc3O)cc(C#N)c2=O)cc1Cl,791
5,Cc1cc(C(=O)CSc2nc3ccccc3n2-c2ccccc2)c(C)n1C1CCS(=O)(=O)C1 (stereo unspecified),1000
6,COC(=O)C1(NC(=O)c2ccc(-n3nc(C)c(-c4ccccc4)c3N)cc2)CCCC1,370
7,Cn1c(/C=C/C(=O)NC2CCC(CCN3CCc4ccc(C#N)cc4CC3)CC2)cc2ccccc21 (stereo unspecified),733
8,CN(C)CCCOc1cccc(CCNCc2cccc(Oc3ccc(Cl)cc3)c2)c1,1010
9,CCNC(=O)N[C@@H]1CN[C@@H](C#Cc2cc3c(Nc4ccc(OCc5cccc(F)c5)c(Cl)c4)ncnc3s2)C1,1010
10,CCNC(=O)Nc1ccc(-c2ccc(-c3nc4cccc(C)c4[nH]3)s2)cc1,1070
11,COc1ccc2nccc([C@@H](O)CN3CCC(NCc4[nH]c5ccccc5c4F)CC3)c2c1,247
12,O=C(Nc1ccc2c(c1)OCO2)NC1CCN(c2ccnc(NCc3ccc(F)cc3)n2)CC1,943
13,CCN(CCCN1CCCCC1)c1cc(C)nc(Nc2cc(Cl)ccc2C)n1,633
14,O=C(Nc1cccc(-c2cccc(-c3nc4ccccc4[nH]3)c2)c1)c1csnn1,921
15,O=C(/C=C/c1ccc(Cl)c(Cl)c1)NCCCCCN1CCC(NC(=O)NC2CCCCC2)CC1,557
16,COc1cc2nccc(Nc3ccc(OCc4ccccc4)cc3)c2cc1OC,203
17,CN(C)CCCNCc1ccc(-c2ccc(C(F)(F)F)cc2)cc1,873
18,CN1CCC(N(C)C(=O)C=Cc2cn(-c3ccccc3)nc2-c2cc3ccccc3o2)CC1,1340
19,O=C(Nc1cccc(-c2ccc(-c3nc4cc(F)ccc4[nH]3)cc2)c1)c1ccncc1,278
20,COc1ccc(-n2nc(C)c3c2NC(=O)CC3c2ccccc2OCc2ccc(F)cc2)cc1 (stereo unspecified),855
21,Cc1cc(-c2ccc3c(c2)CCN(CCC2CCC(NC(=O)/C=C/c4ccc(F)cc4)CC2)CC3)on1 (stereo unspecified),724
22,COc1cc(OCCCCCCON2C(=N)N=C(N)NC2(C)C)cc(OC)c1OC,3.2
23,O=c1[nH]ccc2nc(N[C@@H]3CCNC3)nc(Nc3ccc4c(c3)S(=O)(=O)CC4)c12,377
24,Cc1cc(F)ccc1Nc1nc(N(C)c2ccccc2)c2cc(OCCN(C)C)ccc2n1,786
